Where a name gives a salt, the structure may show the parent alone. Read-outs that look alike come from different tables or passages of the source.
Key:
P2X7 receptor = molecular target: T1, P2X7 receptor (Homo sapiens, UniProt Q99572); assay: P2X7 receptor antagonist activity: bbATP-induced ethidium bromide fluorescence in THP-1 cells; format: cell-based
T1 construct: 200 μl of a suspension of THP-1 cells; endogenous in cells; host or cells: THP-1 cells
T1 sequence (Q99572 1-595): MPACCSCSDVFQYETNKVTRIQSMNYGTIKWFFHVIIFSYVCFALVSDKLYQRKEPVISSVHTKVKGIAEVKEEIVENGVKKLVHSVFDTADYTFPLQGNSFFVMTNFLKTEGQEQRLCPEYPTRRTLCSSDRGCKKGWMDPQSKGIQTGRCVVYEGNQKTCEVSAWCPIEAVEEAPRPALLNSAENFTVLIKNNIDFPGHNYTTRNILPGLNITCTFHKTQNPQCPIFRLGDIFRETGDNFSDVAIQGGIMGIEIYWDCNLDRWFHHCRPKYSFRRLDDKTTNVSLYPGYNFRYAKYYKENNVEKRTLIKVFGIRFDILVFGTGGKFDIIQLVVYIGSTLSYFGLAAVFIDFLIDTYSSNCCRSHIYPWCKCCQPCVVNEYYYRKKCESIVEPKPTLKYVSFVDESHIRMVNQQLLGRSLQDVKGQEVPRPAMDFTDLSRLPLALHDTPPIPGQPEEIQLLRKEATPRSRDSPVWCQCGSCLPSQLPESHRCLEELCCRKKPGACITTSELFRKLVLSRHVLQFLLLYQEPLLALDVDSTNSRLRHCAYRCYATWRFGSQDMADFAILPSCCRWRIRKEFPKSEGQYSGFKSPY
Experimental: Consequently, when the receptor is activated using bbATP in the presence of ethidium bromide (a fluorescent DNA probe), an increase in the fluorescence of intracellular DNA-bound ethidium bromide is observed. The increase in fluorescence can be used as a measure of P2X7 receptor activation and therefore to quantify the effect of a compound on the P2X7 receptor.
In this manner, each of the title compounds of the Examples was tested for antagonist activity at the P2X7 receptor. Thus, the test was performed in 96-well flat bottomed microtitre plates, the wells being filled with 250 μl of test solution comprising 200 μl of a suspension of THP-1 cells (2.5×10^6 cells/ml) containing 10^−4M ethidium bromide, 25 μl of a high potassium buffer solution containing 10^−5M bbATP, and 25 μl of the high potassium buffer solution containing 3×10^−5M test compound. The plate was covered with a plastics sheet and incubated at 37° C. for one hour. […] For the purposes of comparison, bbATP (a P2X7 receptor agonist) and pyridoxal 5-phosphate (a P2X7 receptor antagonist) were used separately in the test as controls.

[1] = THP-1 cells, negative logarithm of concentration reducing bbATP agonist activity by 50%, ethidium bromide fluorescence, 37° C., one hour, read-out: pIC50 (converted)

| Compound | IC50 (P2X7 receptor; [1]) [nM] | melting point [°C] | IC50 (P2X7 receptor) [nM] |
| --- | --- | --- | --- |
| O=C(CC1CCCCC1)Nc1c(Cl)ccc2nc(NCCCO)ccc12 [Example 5, N-[6-Chloro-2-[(3-hydroxypropyl)amino]-5-quinolinyl]-cyclohexaneacetamide, Hydrochloride] | 126 | – | – |
| O=C(CC1CCCCC1)Nc1c(Cl)ccc2nc(NCCNCCO)ccc12 [Example 17, N-[6-Chloro-2-[[2-[(2-hydroxyethyl)amino]ethyl]amino]-5-quinolinyl]-cyclohexaneacetamide, Dihydrochloride] | 25.1 | – | – |
| CC1CCC(CC(=O)Nc2cccc3ncccc23)CC1 (stereo not shown) [Example 20, 4-Methyl-N-5-quinolinyl-cyclohexaneacetamide] | 126 | – | – |
| CS(=O)(=O)NC(=O)NCCCc1ccc2c(NC(=O)CC3CCCCC3)c(Cl)ccc2n1 [Example 24, N-[6-Chloro-2-[3-[[[(methylsulfonyl)amino]carbonyl]amino]propyl]-5-quinolinyl]-cyclohexaneacetamide] | – | 151 to 152 | 501 |
| O=C(CC1CCCCC1)Nc1c(Cl)ccc2nc(N3CC[C@@H](O)C3)ccc12 [Example 28, N-[6-Chloro-2-[(3R)-3-hydroxy-1-pyrrolidinyl]-5-quinolinyl]-cyclohexaneacetamide] | 39.8 | 226 to 227 | – |
| CN[C@@H]1CCN(c2ccc3c(NC(=O)CC4CCCCC4)c(Cl)ccc3n2)C1 [Example 33, N-[6-Chloro-2-[(3R)-3-(methylamino)-1-pyrrolidinyl]-5-quinolinyl]-cyclohexaneacetamide] | 25.1 | 169 | – |

Second part, the molecule after the results:

| IC50 (P2X7 receptor; [1]) [nM] | melting point [°C] | IC50 (P2X7 receptor) [nM] | Compound |
| --- | --- | --- | --- |
| 50.1 | 209 to 214 | – | O=C(CC1CCCCC1)Nc1c(Cl)ccc2nc(N3CCC[C@@H](O)C3)ccc12 [Example 37, N-[6-Chloro-2-[(3R)-3-hydroxy-1-piperidinyl]-5-quinolinyl]-cyclohexaneacetamide] |
| 316 | – | – | O=C(NCC1CCCCC1)c1c(Cl)ccc2ncccc12 [Example 42, 6-Chloro-N-(cyclohexylmethyl)quinoline-5-carboxamide] |
| 398 | – | – | O=C(O)CN1CCN(c2ccc3c(C(=O)NCC4CCCCC4)c(Cl)ccc3n2)CC1 [Example 73, 4-[6-Chloro-5-[[(cyclohexylmethyl)amino]carbonyl]-2-quinolinyl]-1-piperazineacetic acid, Acetate] |
| 200 | 233 to 235 | – | O=C(CC1CCCCC1)Nc1c(Cl)ccc2nc(N3CCC(c4noc(=O)[nH]4)CC3)ccc12 [Example 102, N-[6-Chloro-2-[4-(4,5-dihydro-5-oxo-1,2,4-oxadiazol-3-yl)-1-piperidinyl]-5-quinolinyl]-cyclohexaneacetamide] |
| 316 | – | – | O=C1CN([C@H]2CCN(c3ccc4c(C(=O)NCC5CCCCC5)c(Cl)ccc4n3)C2)S(=O)(=O)N1 [Example 112, 6-Chloro-N-(cyclohexylmethyl)-2-[(3S)-3-(1,1-dioxido-4-oxo-1,2,5-thiadiazolidin-2-yl)-1-pyrrolidinyl]-5-quinolinecarboxamide] |
